Laboratory results taken from patent US6828315B1, “1-Amino triazoloc4,3-a! quinazoline-5-ones and/or -5-thiones inhibiting phosphodiesterase IV” (Warner-Lambert LLC, priority 1999, dated 2004).

Assays:
[1] = target: type 4 phosphodiesterases (PDE4); experiment: Inhibition of the phosphodiesterase (PDE4), enzymatic preparation from line U937; format: biochemical; conditions: PDE4 from cytosolic preparation of human cell line U937
Experimental: The capacity of the formula (I) compounds of the invention to inhibit the cyclic nucleotide phosphodiesterases is evaluated by their Cl50 measurement (necessary concentration to inhibit 50% of enzymatic activity).
The type 4 phosphodiesterases are obtained from a cytosolic preparation extracted from the human origin cellular line U937 according to a method adapted from T. J. Torphy and al., 1992, J.Pharm.Exp. Ther. 263: 1195-1205
The other classes of phosphodiesterases are obtained after partial purification FPLC on Mono Q column. (anion exchange column) according to a method adapted from Lavan B. E., Lakey T., Houslay M. D. Biochemical Pharmacology, 1989, 38(22), 4123-4136., and from Silver P. J and al., 1988, Eur.J. Pharmacol. 150: 85-94, either, from human origin cellular lines for PDE 1 (monocytar line TPH1) and PDE5 (line MCF7 issued from an adenocarcinoma), or from dog aorta for PDE 3, or for the human PDE3A, from gene cloning in insect cells SF21 in baculovirus, according to a method adapted from Luckow, V. A. and al., 1991 in Recombinant DNA Technology&Applications.,eds. Prokop, Bajpai,R. K.&Ho,C. S., pp97-152. The enzymatic activity measurement of the different PDE classes, and in particular the PDE 4, is performed according to a method adapted from W. J. Thompson and al. 1979, Advances in Cyclic Nucleotide Research, Vol. 10: 69-92, ed. G. Brooker and al. Raven Press, NY.
For the Cl50 determination, the enzymatic activity is measured in the presence of inhibitor within concentration margins of 0.1 to 100 μM.
The following table illustrates the PDE4 inhibitory activity from enzymatic preparation obtained from the line U937.

IC50 [1]	melting point	Compound
54 nM		O=c1c2cc(Cl)ccc2n2c(N3CCCCCC3)nnc2n1CC=Cc1ccccc1 [Compound 1, 1-(Azepan-1-yl)-7-chloro-4-(3-phenylallyl)-4H-[1,2,4]triazolo[4,3-a]quinazolin-5-one]
70 nM		O=c1c2cc(Br)ccc2n2c(N3CCCCC3)nnc2n1CC=Cc1ccccc1 [Compound 76, 1-(piperidin-1-yl)-7-bromo-4-(3-phenylallyl)-4H-[1,2,4]triazolo[4,3-a]quinazolin-5-one]
60 nM		Cc1ccc2c(c1)c(=O)n(Cc1ccc(CC(=O)O)cc1)c1nnc(N(C)C)n21 [Compound 102, [4-(1-Dimethylamino-7-methyl-5-oxo-5H-[1,2,4]triazolo[4,3-a]quinazolin-4-ylmethyl)-phenyl]-acetic acid]
	230 °C	CN1CCN(c2nnc3n(Cc4ccccc4)c(=O)c4cc(Br)ccc4n23)CC1 [Compound 182, 4-Benzyl-7-bromo-1-(4-methyl-piperazin-1-yl)-4H-[1,2,4]triazolo[4,3-a]quinazolin-5-one]
	238 °C	O=c1c2cc(Br)ccc2n2c(N3CCN(c4ccccc4)CC3)nnc2n1Cc1ccccc1 [Compound 183, 4-Benzyl-7-bromo-1-(4-phenyl-piperazin-1-yl)-4H-[1,2,4]triazolo[4,3-a]quinazolin-5-one]
	172 °C	O=c1c2cc(Br)ccc2n2c(N3CC=CCC3)nnc2n1Cc1ccccc1 [Compound 185, 4-Benzyl-7-bromo-1-(3,6-dihydro-2H-pyridin-1-yl)-4H-[1,2,4]triazolo[4,3-a]quinazolin-5-one]
	210 °C	O=c1c2cc(Br)ccc2n2c(N3CC=CC3)nnc2n1Cc1ccccc1 [Compound 186, 4-Benzyl-7-bromo-1-(2,5-dihydro-pyrrol-1-yl)-4H-[1,2,4]triazolo[4,3-a]quinazolin-5-one]
	176 °C	O=c1c2cc(Br)ccc2n2c(N3CCC(O)C3)nnc2n1Cc1ccccc1 (stereo not drawn) [Compound 187, 4-Benzyl-7-bromo-1-(3-hydroxy-pyrrolidin-1-yl)-4H-[1,2,4]triazolo[4,3-a]quinazolin-5-one]
	238 °C	CNc1nnc2n(Cc3ccccc3)c(=O)c3cc(Br)ccc3n12 [Compound 188, 4-Benzyl-7-bromo-1-methylamino-4H-[1,2,4]triazolo[4,3-a]quinazolin-5-one]
	189 °C	Cc1ccc2c(c1)c(=O)n(Cc1ccccc1)c1nnc(N3CCCC3)n21 [Compound 191, 4-Benzyl-7-methyl-1-pyrrolidin-1-yl-4H-[1,2,4]triazolo[4,3-a]quinazolin-5-one]
	186 °C	Cc1ccc2c(c1)c(=O)n(Cc1ccccc1)c1nnc(N(C)C)n21 [Compound 192, 4-Benzyl-1-dimethylamino-7-methyl-4H-[1,2,4]triazolo[4,3-a]quinazolin-5-one]
	265 °C	Cc1ccc2c(c1)c(=O)n(Cc1ccccc1)c1nnc(N3CCSCC3)n21 [Compound 193, 4-Benzyl-7-methyl-1-thiomorpholin-4-yl-4H-[1,2,4]triazolo[4,3-a]quinazolin-5-one]
	202 °C	Cc1ccc2c(=O)n(Cc3ccccc3)c3nnc(N4CCCCCC4)n3c2c1 [Compound 194, 1-Azepan-1-yl-4-benzyl-8-methyl-4H-[1,2,4]triazolo[4,3-a]quinazolin-5-one]
	153 °C	COc1ccc2c(c1)c(=O)n(Cc1ccccc1)c1nnc(N3CCCCCC3)n21 [Compound 195, 1-Azepan-1-yl-4-benzyl-7-methoxy-4H-[1,2,4]triazolo[4,3-a]quinazolin-5-one]
	154 °C	COc1ccc2c(c1)c(=O)n(Cc1ccccc1)c1nnc(N3CCCC3)n21 [Compound 196, 4-Benzyl-7-methoxy-1-pyrrolidin-1-yl-4H-[1,2,4]triazolo[4,3-a]quinazolin-5-one]
	219 °C	N#Cc1ccc2c(c1)c(=O)n(Cc1ccccc1)c1nnc(N3CCCC3)n21 [Compound 197, 4-Benzyl-5-oxo-1-pyrrolidin-1-yl-4,5-dihydro-[1,2,4]triazolo[4,3-a]quinazoline-7-carbonitrile]
	206 °C	O=c1c2cc([N+](=O)[O-])ccc2n2c(N3CCCCCC3)nnc2n1Cc1ccccc1 [Compound 198, 1-Azepan-1-yl-4-benzyl-7-nitro-4H-[1,2,4]triazolo[4,3-a]quinazolin-5-one]
	199 to 203 °C	Cn1c(=O)c2ccccc2n2c(N3CCCCCC3)nnc12 [Compound 200, 1-(azepan-1-yl)-4-methyl-4H-[1,2,4]triazolo[4,3-a]quinazolin-5-one]

IC50 [1]	melting point	Compound
	157 °C	O=c1c2ccccc2n2c(N3CCCCCC3)nnc2n1Cc1ccccc1 [Compound 201, 1-(azepan-1-yl)-4-benzyl-4H-[1,2,4]triazolo[4,3-a]quinazolin-5-one]
	> 275 °C	Cn1c(=O)c2c(Cl)cccc2n2c(N3CCCCCC3)nnc12 [Compound 202, 1-(azepan-1-yl)-6-chloro-4-methyl-4H-[1,2,4]triazolo[4,3-a]-quinazolin-5-one]
	145 °C	Cn1c(=O)c2cc(Cl)ccc2n2c(N3CCCCCC3)nnc12 [Compound 203, 1-(azepan-1-yl)-7-chloro-4-methyl-4H-[1,2,4]triazolo[4,3-a]-quinazolin-5-one]
	98 to 100 °C	CCn1c(=O)c2cc(Cl)ccc2n2c(N3CCCCCC3)nnc12 [Compound 204, 1-(azepan-1-yl)-7-chloro-4-ethyl-4H-[1,2,4]triazolo[4,3-a]-quinazolin-5-one]
	203 to 205 °C	Cn1c(=O)c2cc(Cl)ccc2n2c(N3CCCC3)nnc12 [Compound 205, 7-chloro-4-methyl-1-(pyrrolidin-1-yl)-4H-[1,2,4]triazolo[4,3-a]-quinazolin-5-one]
	232 °C	Cn1c(=O)c2cc(Cl)ccc2n2c(N3CCOCC3)nnc12 [Compound 206, 7-chloro-4-methyl-1-(morpholin-4-yl)-4H-[1,2,4]triazolo[4,3-a]-quinazolin-5-one]
	123 to 125 °C	Cn1c(=O)c2cc(Cl)ccc2n2c(N3CCCCCCC3)nnc12 [Compound 207, 1-(azocan-1-yl)-7-chloro-4methyl-4H-[1,2,4]triazolo[4,3-a]-quinazolin-5-one]
	204 °C	Cn1c(=O)c2cc(Cl)ccc2n2c(N3CCCc4ccccc43)nnc12 [Compound 208, 7-chloro-1-(3,4-dihydro-2H-quinolin-1-yl)-4-methyl-4H-[1,2,4]triazolo[4,3-a]quinazolin-5-one]
	272 °C	Cn1c(=O)c2cc(Cl)ccc2n2c(N3CCc4ccccc4C3)nnc12 [Compound 209, 7-chloro-1-(3,4-dihydro-1H-isoquinolin-2-yl)-4-methyl-4H-[1,2,4]triazolo[4,3-a]quinazolin-5-one]
	180 °C	Cn1c(=O)c2cc(Cl)ccc2n2c(N3CCC(Cc4ccccc4)CC3)nnc12 [Compound 210, 1-(4-benzylpiperidin-1-yl)-7chloro-4-methyl-4H-[1,2,4]triazolo[4,3-a]quinazolin-5-one]
	165 °C	Cn1c(=O)c2cc(Cl)ccc2n2c(N3CC4(C)CC3CC(C)(C)C4)nnc12 (stereo not drawn) [Compound 211, 7-chloro-4-methyl-1-(1,3,3-trimethyl-6-azabicyclo[3,2,1]oct-6yl)-4H-[1,2,4]triazolo[4,3-a]-quinazolin-5-one]
	136 °C	Cn1c(=O)c2cc(F)ccc2n2c(N3CCCCCC3)nnc12 [Compound 212, 1-(azepan-1-yl)-7-fluoro-4-methyl-4H-[1,2,4]triazolo[4,3-a]-quinazolin-5-one]
	206 °C	Cn1c(=O)c2cc(I)ccc2n2c(N3CCCCCC3)nnc12 [Compound 213, 1-(azepan-1-yl)-7-iodo-4-methyl-4H-[1,2,4]triazolo[4,3-a]-quinazolin-5-one]
	230 °C	Nc1ccc2c(c1)c(=O)n(Cc1ccccc1)c1nnc(N3CCCC3)n21 [Compound 225, 7-Amino-4-benzyl-1-pyrrolidin-1-yl-4H-[1,2,4]triazolo[4,3-a]quinazolin-5-one]
	152 °C	N#Cc1ccc(Cn2c(=O)c3cc(N)ccc3n3c(N4CCCC4)nnc23)cc1 [Compound 226, 4-(7-Amino-5-oxo-1-pyrrolidin-1-yl-5H-[1,2,4]triazolo[4,3-a]quinazolin-4-ylmethyl)-benzonitrile]
	163 °C	CN(C)c1nnc2n(Cc3ccc(C#N)cc3)c(=O)c3cc(N)ccc3n12 [Compound 228, 4-(7-Amino-1-dimethylamino-5-oxo-5H-[1,2,4]triazolo[4,3-a]quinazolin-4-ylmethyl)-benzonitrile]
	268 °C	CN(C)c1nnc2n(Cc3ccc(CC(N)=O)cc3)c(=O)c3cc(Br)ccc3n12 [Compound 241, 2-[4-(7-Bromo-1-dimethylamino-5-oxo-5H-[1,2,4]triazolo[4,3-a]quinazolin-4-ylmethyl)-phenyl]-acetamide]
	276 °C	CN(C)c1nnc2n(Cc3ccc(C#N)cc3)c(=S)c3cc(Br)ccc3n12 [Compound 245, 4-(7-Bromo-1-dimethylamino-5-thioxo-5H-[1,2,4]triazolo[4,3-a]quinazolin-4-ylmethyl)-benzonitrile]
